Test results reported in ChEMBL document CHEMBL3112449, “Identification of a selective inhibitor of murine intestinal alkaline phosphatase (ML260) by concurrent ultra-high throughput screening against human and mouse isozymes” (Bioorg Med Chem Lett, 2014).
Active and inactive are the calls of the source. No cut-off for these calls is given here.

Key:
[1] = biological target: Alkaline phosphatase, placental type (Homo sapiens, UniProt P05187); test: Inhibition of FLAG-tagged PLAP (unknown origin) expressed in African green monkey COS1 cells after 30 mins by chemiluminescence assay; assay type: cell-based, COS-1
Alkaline phosphatase, placental type, sequence (P05187 whole entry): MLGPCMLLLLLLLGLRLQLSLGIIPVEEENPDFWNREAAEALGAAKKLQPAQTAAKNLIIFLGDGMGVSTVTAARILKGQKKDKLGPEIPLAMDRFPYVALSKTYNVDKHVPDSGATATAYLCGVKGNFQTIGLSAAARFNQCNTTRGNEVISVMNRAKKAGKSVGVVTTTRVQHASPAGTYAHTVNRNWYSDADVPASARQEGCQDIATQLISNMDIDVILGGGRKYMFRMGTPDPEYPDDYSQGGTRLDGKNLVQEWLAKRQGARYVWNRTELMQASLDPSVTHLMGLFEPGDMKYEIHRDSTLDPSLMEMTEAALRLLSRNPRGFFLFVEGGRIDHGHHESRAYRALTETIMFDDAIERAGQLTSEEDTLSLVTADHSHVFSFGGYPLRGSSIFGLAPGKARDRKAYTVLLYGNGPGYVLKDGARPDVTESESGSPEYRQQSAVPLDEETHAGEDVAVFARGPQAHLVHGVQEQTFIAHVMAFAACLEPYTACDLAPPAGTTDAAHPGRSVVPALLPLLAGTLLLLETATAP

[2] = biological target: T1, Intestinal-type alkaline phosphatase (Mus musculus, UniProt P24822); test: Inhibition of mouse duodenal-specific FLAG-tagged IAP expressed in African green monkey COS1 cells after 30 mins by chemiluminescence assay; assay type: cell-based, COS-1
T1 sequence (P24822 whole entry): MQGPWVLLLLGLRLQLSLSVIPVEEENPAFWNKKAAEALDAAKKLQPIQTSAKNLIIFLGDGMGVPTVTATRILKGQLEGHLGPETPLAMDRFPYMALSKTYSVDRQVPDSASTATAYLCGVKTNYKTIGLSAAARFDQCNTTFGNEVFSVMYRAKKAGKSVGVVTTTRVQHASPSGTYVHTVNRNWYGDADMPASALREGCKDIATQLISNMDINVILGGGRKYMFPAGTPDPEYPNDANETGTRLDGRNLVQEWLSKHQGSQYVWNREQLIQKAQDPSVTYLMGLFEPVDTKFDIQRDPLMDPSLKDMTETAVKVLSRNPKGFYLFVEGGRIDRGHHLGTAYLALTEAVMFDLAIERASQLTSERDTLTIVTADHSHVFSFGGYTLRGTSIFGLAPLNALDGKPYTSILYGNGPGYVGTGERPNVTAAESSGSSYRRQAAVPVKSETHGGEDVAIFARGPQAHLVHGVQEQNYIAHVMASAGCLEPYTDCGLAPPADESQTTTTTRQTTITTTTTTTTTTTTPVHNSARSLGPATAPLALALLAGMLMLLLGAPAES

[3] = biological target: T2, Alkaline phosphatase, tissue-nonspecific isozyme (Homo sapiens, UniProt P05186); test: Inhibition of FLAG-tagged TNAP (unknown origin) expressed in African green monkey COS1 cells after 30 mins by chemiluminescence assay; assay type: cell-based, COS-1
T2 sequence (P05186 whole entry): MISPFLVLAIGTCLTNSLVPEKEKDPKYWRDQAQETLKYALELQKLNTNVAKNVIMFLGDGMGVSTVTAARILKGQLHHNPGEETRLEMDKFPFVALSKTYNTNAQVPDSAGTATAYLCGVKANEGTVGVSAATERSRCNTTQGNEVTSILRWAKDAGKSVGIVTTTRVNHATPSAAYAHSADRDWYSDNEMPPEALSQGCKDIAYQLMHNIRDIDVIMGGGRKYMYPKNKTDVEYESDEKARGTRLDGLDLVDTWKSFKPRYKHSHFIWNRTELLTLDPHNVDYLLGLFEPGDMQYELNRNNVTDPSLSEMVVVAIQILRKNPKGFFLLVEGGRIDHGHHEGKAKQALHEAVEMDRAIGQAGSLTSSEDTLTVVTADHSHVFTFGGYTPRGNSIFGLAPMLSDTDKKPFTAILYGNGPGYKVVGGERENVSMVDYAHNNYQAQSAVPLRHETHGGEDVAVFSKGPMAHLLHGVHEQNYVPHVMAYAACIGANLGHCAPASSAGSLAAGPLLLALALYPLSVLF

[4] = biological target: T3, Alkaline phosphatase, germ cell type (Mus musculus, UniProt P24823); test: Inhibition of mouse EAP using p-nitrophenyl phosphate as substrate after 30 mins by chemiluminescence assay
T3 sequence (P24823 whole entry): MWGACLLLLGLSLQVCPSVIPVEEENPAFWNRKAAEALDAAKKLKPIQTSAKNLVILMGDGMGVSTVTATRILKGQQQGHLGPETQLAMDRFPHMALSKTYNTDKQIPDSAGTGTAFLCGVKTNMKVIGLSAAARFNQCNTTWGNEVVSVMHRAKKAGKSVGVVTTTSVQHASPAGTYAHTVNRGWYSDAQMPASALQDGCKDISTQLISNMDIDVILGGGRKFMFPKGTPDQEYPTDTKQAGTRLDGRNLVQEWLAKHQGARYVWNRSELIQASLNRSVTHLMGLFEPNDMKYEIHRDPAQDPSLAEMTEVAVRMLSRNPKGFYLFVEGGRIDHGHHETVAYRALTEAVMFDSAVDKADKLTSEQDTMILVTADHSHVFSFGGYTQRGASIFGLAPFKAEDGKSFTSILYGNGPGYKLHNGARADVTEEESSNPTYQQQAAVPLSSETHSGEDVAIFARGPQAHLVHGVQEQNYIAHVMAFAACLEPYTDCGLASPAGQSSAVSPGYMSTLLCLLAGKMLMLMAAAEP

[5] = biological target: T4, Intestinal-type alkaline phosphatase (Homo sapiens, UniProt P09923); test: Inhibition of human FLAG-tagged IAP expressed in African green monkey COS1 cells using p-nitrophenyl phosphate as substrate after 30 mins by chemiluminescence assay; assay type: cell-based, COS-1
T4 sequence (P09923 whole entry): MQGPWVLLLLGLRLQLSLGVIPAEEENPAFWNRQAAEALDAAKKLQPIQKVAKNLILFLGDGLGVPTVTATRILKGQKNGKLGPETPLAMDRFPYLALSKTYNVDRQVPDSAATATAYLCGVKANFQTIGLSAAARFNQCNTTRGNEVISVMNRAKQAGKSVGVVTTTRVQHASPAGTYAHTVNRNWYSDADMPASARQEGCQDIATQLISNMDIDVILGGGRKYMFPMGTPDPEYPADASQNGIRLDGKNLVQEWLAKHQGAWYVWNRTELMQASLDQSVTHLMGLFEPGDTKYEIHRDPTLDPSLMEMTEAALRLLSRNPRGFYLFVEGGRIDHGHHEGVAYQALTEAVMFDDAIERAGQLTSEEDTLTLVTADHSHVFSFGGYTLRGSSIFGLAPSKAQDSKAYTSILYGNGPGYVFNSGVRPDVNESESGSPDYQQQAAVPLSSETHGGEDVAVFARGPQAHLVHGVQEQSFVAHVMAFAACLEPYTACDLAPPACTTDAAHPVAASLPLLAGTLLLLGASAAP

[6] = biological target: T1, Intestinal-type alkaline phosphatase; test: Competitive inhibition of mouse duodenal-specific FLAG-tagged IAP expressed in African green monkey COS1 cells using p-nitrophenyl phosphate as substrate by double reciprocal plot analysis; assay type: cell-based, COS-1; settings: read-out: Ki(app)
[7] = biological target: Intestinal-type alkaline phosphatase (Mus musculus) (UniProt P24822); settings: CHO-K1, 10 uM
Intestinal-type alkaline phosphatase (Mus musculus), sequence (P24822 whole entry): as the sequence (P24822 whole entry) above
Description: Inhibition of mouse duodenal-specific IAP expressed in CHOK1 cells at 10 uM by ELF97 staining-based phase contrast microscopic analysis

[8] = Inhibition of mouse gIAP using p-nitrophenyl phosphate as substrate after 30 mins by chemiluminescence assay
[9] = biological target: T1, Intestinal-type alkaline phosphatase; test: Inhibition of mouse duodenal-specific FLAG-tagged IAP expressed in African green monkey COS1 cells using p-nitrophenyl phosphate as substrate after 30 mins by chemiluminescence assay
[10] = biological target: T4, Intestinal-type alkaline phosphatase; test: Inhibition of human FLAG-tagged IAP expressed in African green monkey COS1 cells after 30 mins by chemiluminescence assay; assay type: cell-based, COS-1

Row | IC50 [1] [µM] | IC50 [2] [µM] | IC50 [3] [µM] | SMILES | further results
1 | > 100 | > 100 | > 100 | O=C(CNS(=O)(=O)c1ccc2[nH]c(=O)oc2c1)NCCc1ccc2c(c1)OCO2 | –
2 | > 100 | 19 | > 100 | O=C(CCNS(=O)(=O)c1ccc2[nH]c(=O)oc2c1)NCCc1ccc2c(c1)OCO2 | –
3 | > 100 | > 100 | > 100 | COc1ccc(NC(=O)NS(=O)(=O)c2ccc3[nH]c(=O)oc3c2)cc1OC | –
4 | > 100 | > 100 | > 100 | Cc1ccc(C)c(NC(=O)NS(=O)(=O)c2ccc3[nH]c(=O)oc3c2)c1 | –
5 | > 100 | 40 | > 100 | COc1cccc(CNC(=O)NS(=O)(=O)c2ccc3[nH]c(=O)oc3c2)c1 | –
6 | > 100 | 12 | > 100 | O=C(CCNS(=O)(=O)c1ccc2[nH]c(=O)oc2c1)Nc1ccc2c(c1)OCO2 | –
7 | > 100 | > 100 | > 100 | N#Cc1cccc(NC(=O)NS(=O)(=O)c2ccc3[nH]c(=O)oc3c2)c1 | –
8 | > 100 | 89 | > 100 | COc1ccc(CNC(=O)NS(=O)(=O)c2ccc3[nH]c(=O)oc3c2)c(OC)c1 | –
9 | > 100 | > 100 | > 100 | N#Cc1ccc(NC(=O)NS(=O)(=O)c2ccc3[nH]c(=O)oc3c2)cc1 | –
10 | > 100 | > 100 | > 100 | O=C(CNS(=O)(=O)c1ccc2[nH]c(=O)oc2c1)NCc1ccc2c(c1)OCO2 | –
11 | > 100 | > 100 | > 100 | O=C(NCCc1ccc2c(c1)OCO2)NS(=O)(=O)c1ccc2[nH]c(=O)oc2c1 | –
12 | > 100 | 0.54 | 35 | Cc1ccc(C)c(NC(=O)CNS(=O)(=O)c2ccc3[nH]c(=O)oc3c2)c1 | IC50 [4]: 21.1 µM; IC50 [5]: 27.6 µM; Ki [6]: 3.2 µM; inhibition [7]: Active; IC50 [8]: 21 µM; IC50 [9]: 3.8 µM
13 | > 100 | 1.82 | > 100 | N#Cc1cccc(NC(=O)CCNS(=O)(=O)c2ccc3nc(O)oc3c2)c1 | IC50 [10]: > 100 µM
14 | > 100 | 2.6 | > 100 | O=C(CCNS(=O)(=O)c1ccc2[nH]c(=O)oc2c1)NCc1ccc2c(c1)OCO2 | –
15 | > 100 | 45 | > 100 | O=C(CCCNS(=O)(=O)c1ccc2[nH]c(=O)oc2c1)NCc1ccc2c(c1)OCO2 | –
16 | > 100 | 44 | > 100 | O=C(CCNS(=O)(=O)c1ccc2[nH]c(=O)oc2c1)NCCCc1ccc2c(c1)OCO2 | –
17 | > 100 | > 100 | > 100 | O=C(Nc1ccc2c(c1)OCO2)NS(=O)(=O)c1ccc2[nH]c(=O)oc2c1 | –
